What was measured:
human mGlu5 receptor [1] = target: T1, human mGlu5 receptor (Homo sapiens, UniProt P41594); experiment: Bodipy-FL GTPγS activation of purified Gq/Gs by purified receptor ([…] ligand); pEC50 from IP-One assay in HEK293 cells; type: biochemical; parameters: gene GRM5; mGlu5-Δ856 (C-terminus truncated after Ala856)
Target sequence in this assay (P41594 21-856): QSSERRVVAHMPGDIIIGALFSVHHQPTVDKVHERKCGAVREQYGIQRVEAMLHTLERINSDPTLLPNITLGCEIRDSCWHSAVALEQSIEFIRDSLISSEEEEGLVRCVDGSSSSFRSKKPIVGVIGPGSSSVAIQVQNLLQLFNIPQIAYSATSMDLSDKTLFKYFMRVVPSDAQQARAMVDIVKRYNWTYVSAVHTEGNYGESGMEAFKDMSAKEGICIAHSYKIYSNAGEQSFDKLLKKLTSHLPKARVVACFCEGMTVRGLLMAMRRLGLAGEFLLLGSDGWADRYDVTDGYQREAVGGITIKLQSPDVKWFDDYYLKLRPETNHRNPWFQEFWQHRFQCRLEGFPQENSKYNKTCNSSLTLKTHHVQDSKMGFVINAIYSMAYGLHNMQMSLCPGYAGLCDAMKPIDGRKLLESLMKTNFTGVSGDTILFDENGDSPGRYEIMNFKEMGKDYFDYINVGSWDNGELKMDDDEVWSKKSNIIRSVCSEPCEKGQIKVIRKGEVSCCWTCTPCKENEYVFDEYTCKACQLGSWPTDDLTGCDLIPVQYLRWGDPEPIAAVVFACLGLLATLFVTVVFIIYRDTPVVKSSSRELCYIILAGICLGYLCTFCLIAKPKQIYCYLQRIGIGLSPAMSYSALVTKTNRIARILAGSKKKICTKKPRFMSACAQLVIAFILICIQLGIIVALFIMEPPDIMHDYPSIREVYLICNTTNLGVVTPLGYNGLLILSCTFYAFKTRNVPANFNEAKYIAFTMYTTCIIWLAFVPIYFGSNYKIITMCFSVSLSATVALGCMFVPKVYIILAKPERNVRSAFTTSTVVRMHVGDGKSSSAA

human mGlu5 receptor [2] = target: T1, human mGlu5 receptor; experiment: IP-One accumulation in transfected HEK293 cells; type: cell-based; parameters: gene GRM5; full-length wild-type (SNAP-tagged)
Target sequence in this assay (P41594 21-1212): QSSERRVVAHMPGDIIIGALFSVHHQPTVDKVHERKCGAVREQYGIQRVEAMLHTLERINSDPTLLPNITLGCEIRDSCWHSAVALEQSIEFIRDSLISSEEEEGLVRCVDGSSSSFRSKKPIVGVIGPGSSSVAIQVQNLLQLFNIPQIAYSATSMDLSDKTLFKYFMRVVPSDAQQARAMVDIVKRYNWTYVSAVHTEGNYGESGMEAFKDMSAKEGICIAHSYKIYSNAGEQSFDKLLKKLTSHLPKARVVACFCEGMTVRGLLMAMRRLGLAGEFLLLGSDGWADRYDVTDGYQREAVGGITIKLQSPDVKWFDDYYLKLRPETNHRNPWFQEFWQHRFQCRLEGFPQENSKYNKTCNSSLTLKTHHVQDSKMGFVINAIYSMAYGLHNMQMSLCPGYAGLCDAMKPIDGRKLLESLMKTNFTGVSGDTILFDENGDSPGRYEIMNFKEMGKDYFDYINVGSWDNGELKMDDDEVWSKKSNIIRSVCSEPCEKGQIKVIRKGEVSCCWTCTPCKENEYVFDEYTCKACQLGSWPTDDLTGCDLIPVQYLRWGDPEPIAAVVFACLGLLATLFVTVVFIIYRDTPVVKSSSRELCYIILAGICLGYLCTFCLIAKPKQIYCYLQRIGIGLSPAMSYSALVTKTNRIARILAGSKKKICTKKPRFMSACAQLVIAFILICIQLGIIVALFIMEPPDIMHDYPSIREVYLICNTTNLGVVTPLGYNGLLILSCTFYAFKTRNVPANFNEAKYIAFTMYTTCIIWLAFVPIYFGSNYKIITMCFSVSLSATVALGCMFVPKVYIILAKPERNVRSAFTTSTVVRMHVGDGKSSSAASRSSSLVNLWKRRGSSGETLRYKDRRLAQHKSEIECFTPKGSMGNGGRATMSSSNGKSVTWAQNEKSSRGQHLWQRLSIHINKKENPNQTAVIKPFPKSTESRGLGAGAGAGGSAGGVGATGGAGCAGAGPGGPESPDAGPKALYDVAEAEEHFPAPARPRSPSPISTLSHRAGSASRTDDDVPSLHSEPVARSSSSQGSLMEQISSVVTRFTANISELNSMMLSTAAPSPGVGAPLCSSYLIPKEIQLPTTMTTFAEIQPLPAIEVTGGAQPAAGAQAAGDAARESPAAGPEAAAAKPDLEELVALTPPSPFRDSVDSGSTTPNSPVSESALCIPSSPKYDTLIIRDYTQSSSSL

Row | SMILES | EC50 (human mGlu5 receptor [1]) | EC50 (human mGlu5 receptor [2])
1 | C[C@@H](NC(=O)c1ccc(C#Cc2cccc(F)c2)cn1)C(C)(C)O [VU0424465, (R)-5-((3-fluorophenyl)ethynyl)-N-(3-hydroxy-3-methylbutan-2-yl) picolinamide] | 2.95 nM | –
2 | N[C@@H](Cn1oc(=O)[nH]c1=O)C(=O)O [quisqualate] | – | 30.9 nM
